What was measured:
[1] = tested on: mouse transplantation tumor S180; experiment: inhibitory action of No. 2, intravenous injection administration, on mouse transplantation tumor S180; settings: masculine reference, dosage 30 mg/kg, once on alternate days, 4 times
Text: (§1) 1.1 The test medicine: the Ganoderma spore polysaccharide of the present invention (produced by the method of the present invention, it is named No.2.).
(§2) 1.2 Animal: ICR mouse, 18-22 g, half male and half female, the mouses is provided by China drug section university animal laboratory. The number of ertificate of conformity is: SCXK(SU)2002-0011. The feedstuff is diet pellet, it is provided by China drug section university animal laboratory. Breeding condition: air conditioning room, Temperature 18-24° C., Relative humidity: 70%.
(§3) 1.3 Masculine drug: endoxan (CTX), HENGRUI MEDICINE CO LTD JIANG.
3.2.1 administration route: intravenous injection (iv)
3.2.2 administration period: Inoculate S180 entity type by transplantation tumor methodology, after inoculating 24 h, administrate to the mouse and ip administrate, once on alternate days, administrate for 4 times, at the next day when the administration is stopped, kill the mouse.
(§4) 3.2.3 dosage, there are four groups:
(§5) blank reference group (normal saline)
(§6) 3.2.4 experimental method: Take 40 above-mentioned mouses (S180 entity type inoculated by transplantation tumor methodology), after the mouse is inoculated, weigh the mouse, and divide them into 4 groups, there is 10 mouses in every groups, half male and half female, blank reference group and CTX group are negative and masculine reference group. After inoculating 24 h, administrate to the mouse and ip administrate, once on alternate days, administrate for 4 times, at the next day when the administration is stopped, weigh the mouses and kill them, weigh the weight of tumor, statisticaly treat the obtained data t verify.

[2] = tested on: mouse transplantation tumor Heps; experiment: inhibitory action of No. 1, oral pour stomach administration, on mouse transplantation tumor Heps; settings: masculine reference, dosage 30 mg/kg, once a day, 7 times
Description: (§7) 1.1 The test medicine: the reference Ganoderma spore polysaccharide (it is named No. 1), it is produced by the method disclosed in the CN1483743, the specific steps is: add Ganoderma spore powder into distilled water, the added amount can shape the Ganoderma spore, shake it up, pelletize, dry in the air, use CO2 supercritical extraction method to remove fat, weigh 10 kg Ganoderma spore which is removed fat, add it into the abstraction pot, add 150 Kg water, soak it for 2 h, heat to boil, keep reflux for 4 h, centrifuge the extracting solution, condense the filtrate to 5 Kg, add three times 95% ethanol, lay it 24 h, filter the polysaccharide precipitation, dry the precipitation so as to obtain the Ganoderma spore polysaccharide.
as §2, with “Animal:ICR” for “Animal: ICR”, “certificate” for “ertificate”, “SCXK (SU)2002-0011.” for “SCXK(SU)2002-0011.”
(§8) 1.3 Masculine Drug: endoxan (CTX), HENGRUI MEDICINE CO LTD JIANG. Specification: 200 mg/bottle, Batch Number: 06060121.
3.1.1 administration route: oral pour stomach (ip)
3.1.2 administration period: Inoculate Heps entity type by transplantation tumor methodology, after inoculating 24 h, administrate to the mouse and ip administrate, once a day, administrate for 7 times, at the next day when the administration is stopped, kill the mouse.
(§9) 3.1.3 dosage, there are four groups:
(§10) blank reference group(normal saline)
as §6, with “3.1.4 experimental” for “3.2.4 experimental”, “mouses (Heps” for “mouses (S180”, “once a day,” for “once on alternate days,”, “for 7” for “for 4”, “data (t verify).” for “data t verify.”

[3] = tested on: mouse transplantation tumor Heps; experiment: inhibitory action of No. 2, intravenous injection administration, on mouse transplantation tumor Heps; settings: masculine reference, dosage 30 mg/kg, once on alternate days, 4 times
Text: as §1, §2, §3
3.1 the inhibitory action of the No. 2 intravenous injection (iv) administration to the mouse transplantation tumor Heps.
3.1.1 administration route: intravenous injection (iv)
3.1.2 administration period: Inoculate Heps entity type by transplantation tumor methodology, after inoculating 24 h, administrate to the mouse and ip administrate, once on alternate days, administrate for 4 times, at the next day when the administration is stopped, kill the mouse.
as §9, §5
as §6, with “CTX: 20 mg/kg 3.1.4” for “3.2.4”, “(Heps” for “(S180”, “statistically” for “statisticaly”, “(t verify).” for “t verify.”

[4] = tested on: mouse transplantation tumor S180; experiment: inhibitory action of No. 1, oral pour stomach administration, on mouse transplantation tumor S180; settings: masculine reference, dosage 30 mg/kg, once a day, 7 times
Description: as §7
as §2, with “Animal:ICR” for “Animal: ICR”, “certificate” for “ertificate”, “SCXK (SU)2002-0011.” for “SCXK(SU)2002-0011.”
as §8
3.2.1 administration route: oral pour stomach […]
3.2.2 administration period: Inoculate S180 entity type by transplantation tumor methodology, after inoculating 24 h, administrate to the mouse and ip administrate, once a day, administrate for 7 times, at the next day when the administration is stopped, kill the mouse.
as §4, §10
as §6, with “once a day,” for “once on alternate days,”, “for 7” for “for 4”

## O=P1(N(CCCl)CCCl)NCCCO1 (stereo not shown) [CTX, endoxan]
[1]
  The rate of inhibiting tumor (%): 65.81%
[1]; X ± SD, n = 10
  Weight(g) After anministration: 24.3 ± 1.68 g
  Weight(g) Before anministration: 20.1 ± 0.94 g
  the weight of tumor: 0.51 ± 0.18 g
[2]
  The rate of inhibiting tumor (%): 64.60%
[2]; X ± SD, n = 10
  Weight(g) After anministration: 24.3 ± 2.41 g
  Weight(g) Before anministration: 20.1 ± 1.30 g
  the weight of tumor: 0.43 ± 0.15 g
[3]
  The rate of inhibiting tumor (%): 64.60%
[3]; X ± SD, n = 10
  Weight(g) After anministration: 24.3 ± 2.41 g
  Weight(g) Before anministration: 20.1 ± 1.30 g
  the weight of tumor: 0.43 ± 0.15 g
[4]
  The rate of inhibiting tumor (%): 65.81%
[4]; X ± SD, n = 10
  Weight(g) After anministration: 24.3 ± 1.68 g
  Weight(g) Before anministration: 20.1 ± 0.94 g
  the weight of tumor: 0.51 ± 0.18 g
